Reference: patent US20250009815A1, “COMPOSITION FOR COMPETITIVE INHIBITION OF PATHOGENS AND RESTORATION OF MICROBIAL ECOLOGICAL BALANCE” (priority 2019, published 2025)
Where two headings read alike, the source gives them in different places.

Key:
Assay type in all cases: cell-based
[1] = test system: VP03, identified as Gardnerella vaginalis; assay: Zone of inhibition against isolated vaginal pathogen VP03
Description: (§1) Antimicrobial activities against isolated vaginal pathogens (i.e. VP01, VP02, VP06, VP03, VP04 and VP05) were individually screened and analyzed to conclude and find effective probiotic compositions.
(§2) Different combination of selected probiotics strains with variation in potency were formed and underwent potential antimicrobial effect against isolated vaginal bacterial and fungal pathogens. The extents of zone of inhibition in antimicrobial activity were considered for selection of formulation. The probiotic compositions of the present invention comprise (a) Bacillus coagulans (B.C.); (b) Bacillus subtilis (B.S.); (c) citric acid (CA); (d) gallic acid (GA); (e) beta-cyclodextrin (adhesive); (f) allentoin and (g) a pH regulator (h) lanolin (i) polyethylene glycol (j) a cooling agent etc., and (k) a bioadhesive.
(§3) The zones of inhibition were also examined for each individual components at the same concentration levels as present in the respective combined formulations.

[2] = test system: VP04 (suspected bacterial vaginal pathogen); assay: Zone of inhibition against isolated vaginal pathogen VP04
Description: as §1, §2, §3

[3] = test system: VP06, identified as Candida albicans
Description: as §1, §2, §3
Vaginal swabs obtained from infected patients were grown on Potato Dextrose Agar (PDA) media, and thereafter single colonies were re-streaked on Potato Dextrose Agar plates to obtain fungal isolates, which were designated as VP06, VP02 and VP01. Potato Dextrose Agar is a common medium usually practiced to isolate and culture various fungi only, specifically applicable for yeast or fungi.

[4] = test system: VP05 (suspected bacterial vaginal pathogen); assay: Zone of inhibition against isolated vaginal pathogen VP05
Description: as §1, §2, §3

[5] = test system: VP02 (suspected fungal vaginal pathogen); assay: Zone of inhibition against isolated vaginal pathogen VP02
Description: as §1, §2, §3

[6] = test system: VP01 (suspected fungal vaginal pathogen); assay: Zone of inhibition against isolated vaginal pathogen VP01
Description: as §1, §2, §3

[7] = Table 1 initial studies, n-i = no zone of inhibition
[8] = Table 5, amounts as in formulation B: B.c 550, B.s 125 million cfu, CA 20, GA 60 mg, n-i = no zone
[9] = Table 6, amounts as in formulation C: B.c 350, B.s 350 million cfu, CA 20, GA 40 mg, n-i = no zone
[10] = Table 8, amounts as in formulation E: B.c 25, B.s 700 million cfu, CA 100, GA 10 mg, n-i = no zone
[11] = Table 4, amounts as in formulation A: B.c 700, B.s 25 million cfu, CA 10, GA 100 mg, n-i = no zone
[12] = Table 7, amounts as in formulation D: B.c 125, B.s 550 million cfu, CA 60, GA 20 mg, n-i = no zone

Structure (SMILES)	ZONE OF INHIBITION VP03 [1, 7]	ZONE OF INHIBITION VP03 [1, 8]	ZONE OF INHIBITION VP03 [1, 9]	ZONE OF INHIBITION VP03 [1, 10]	ZONE OF INHIBITION VP04 [2, 7]	ZONE OF INHIBITION VP04 [2, 11]	ZONE OF INHIBITION VP04 [2, 8]	ZONE OF INHIBITION VP04 [2, 9]	ZONE OF INHIBITION VP04 [2, 12]	ZONE OF INHIBITION VP04 [2, 10]	ZONE OF INHIBITION VP06 [3, 7]	ZONE OF INHIBITION VP06 [3, 11]	ZONE OF INHIBITION VP06 [3, 8]	ZONE OF INHIBITION VP06 [3, 9]	ZONE OF INHIBITION VP06 [3, 12]	ZONE OF INHIBITION VP06 [3, 10]	ZONE OF INHIBITION VP05 [4, 7]	ZONE OF INHIBITION VP05 [4, 11]	ZONE OF INHIBITION VP05 [4, 8]	ZONE OF INHIBITION VP05 [4, 9]	further results
O=C(O)CC(O)(CC(=O)O)C(=O)O [Citric Acid (CA), citric acid]	10 mm	7 mm	8 mm	9 mm	11 mm	n-i	n-i	10 mm	10 mm	11 mm	n-i	n-i	n-i	n-i	n-i	n-i	19 mm	n-i	n-i	8 mm	ZONE OF INHIBITION VP03 ([1]; Table 4, amounts as in formulation A: B.c 700, B.s 25 million cfu, CA 10, GA 100 mg, n-i = no zone, listed as CA): n-i; ZONE OF INHIBITION VP03 ([1]; Table 4, amounts as in formulation A: B.c 700, B.s 25 million cfu, CA 10, GA 100 mg, n-i = no zone, listed as Citric Acid): unable to cause any inhibitory effect; ZONE OF INHIBITION VP03 ([1]; Table 7, amounts as in formulation D: B.c 125, B.s 550 million cfu, CA 60, GA 20 mg, n-i = no zone, listed as CA): n-i; ZONE OF INHIBITION VP03 ([1]; Table 7, amounts as in formulation D: B.c 125, B.s 550 million cfu, CA 60, GA 20 mg, n-i = no zone, listed as Citric acid): not active; ZONE OF INHIBITION VP05 [4, 12]: 8 mm; ZONE OF INHIBITION VP05 [4, 10]: 10 mm; ZONE OF INHIBITION VP02 [5, 7]: 30 mm; ZONE OF INHIBITION VP02 [5, 11]: n-i; ZONE OF INHIBITION VP02 [5, 8]: n-i; ZONE OF INHIBITION VP02 [5, 9]: n-i; ZONE OF INHIBITION VP02 [5, 12]: n-i; ZONE OF INHIBITION VP02 ([5]; Table 8, amounts as in formulation E: B.c 25, B.s 700 million cfu, CA 100, GA 10 mg, n-i = no zone, listed as CA): n-i; ZONE OF INHIBITION VP02 ([5]; Table 8, amounts as in formulation E: B.c 25, B.s 700 million cfu, CA 100, GA 10 mg, n-i = no zone, listed as Citric acid): not active; ZONE OF INHIBITION VP01 [6, 7]: 41 mm; ZONE OF INHIBITION VP01 [6, 11]: n-i; ZONE OF INHIBITION VP01 [6, 8]: n-i; ZONE OF INHIBITION VP01 [6, 9]: 23 mm; ZONE OF INHIBITION VP01 [6, 12]: 22 mm; ZONE OF INHIBITION VP01 [6, 10]: 25 mm
O=C(O)c1cc(O)c(O)c(O)c1 [Gallic Acid (GA), gallic acid]	n-i	5 mm	7 mm	n-i	9 mm	10 mm	10 mm	9 mm	9 mm	7 mm	9 mm	n-i	n-i	n-i	N-i	n-i	11 mm	7 mm	7 mm	6 mm	ZONE OF INHIBITION VP03 [1, 11]: 8 mm; ZONE OF INHIBITION VP03 ([1]; Table 7, amounts as in formulation D: B.c 125, B.s 550 million cfu, CA 60, GA 20 mg, n-i = no zone, listed as GA): n-i; ZONE OF INHIBITION VP03 ([1]; Table 7, amounts as in formulation D: B.c 125, B.s 550 million cfu, CA 60, GA 20 mg, n-i = no zone, listed as Gallic Acid): not active; ZONE OF INHIBITION VP05 [4, 12]: 6 mm; ZONE OF INHIBITION VP05 [4, 10]: 6 mm; ZONE OF INHIBITION VP02 [5, 7]: 35 mm; ZONE OF INHIBITION VP02 [5, 11]: 16 mm; ZONE OF INHIBITION VP02 [5, 8]: 15 mm; ZONE OF INHIBITION VP02 [5, 9]: 15 mm; ZONE OF INHIBITION VP02 [5, 12]: 18 mm; ZONE OF INHIBITION VP02 ([5]; Table 8, amounts as in formulation E: B.c 25, B.s 700 million cfu, CA 100, GA 10 mg, n-i = no zone, listed as GA): n-i; ZONE OF INHIBITION VP02 ([5]; Table 8, amounts as in formulation E: B.c 25, B.s 700 million cfu, CA 100, GA 10 mg, n-i = no zone, listed as Gallic Acid): not active; ZONE OF INHIBITION VP01 [6, 7]: 35 mm; ZONE OF INHIBITION VP01 [6, 11]: 19 mm; ZONE OF INHIBITION VP01 [6, 8]: 17 mm; ZONE OF INHIBITION VP01 [6, 9]: 16 mm; ZONE OF INHIBITION VP01 [6, 12]: 16 mm; ZONE OF INHIBITION VP01 [6, 10]: 13 mm
